Measured values as given in US20240101540A1, “TARGETED PROTEIN DEGRADATION OF PARP14 FOR USE IN THERAPY” (Ribon Therapeutics, Inc., priority 2022, published 2024).
Structures can show the parent of a compound that is named as a salt. Where two headings read alike, the source gives them in different places.

Molecular target: T1, catalytic domain of human PARP14 (residues 1611 to 1801) with NanoLuc tag (Homo sapiens, UniProt Q460N5)
T1 construct: expressed in transfected cells; host or cells: HEK-293T cells (ATCC), pcDNA3.1(-) vector
T1 sequence (Q460N5 1611-1801): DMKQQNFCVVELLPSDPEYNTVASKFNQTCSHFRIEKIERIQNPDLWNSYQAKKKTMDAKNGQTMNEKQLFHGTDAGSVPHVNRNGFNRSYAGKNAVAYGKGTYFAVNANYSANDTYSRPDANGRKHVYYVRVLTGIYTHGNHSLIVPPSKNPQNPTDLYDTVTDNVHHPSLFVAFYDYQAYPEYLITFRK
Assay: NanoLuc assay for the degradation of PARP14 (NanoLuc-tagged PARP14 overexpressed in HEK-293T cells, 2 hours)
Format: cell-based
Settings: Assay A (Example A): NanoLuc-tagged PARP14 degradation in HEK-293T cells
Procedure: The insert also contained a NanoLuc tag on the N terminus of the PARP14 protein.
Degradation of PARP14 protein was assessed using measurement of the NanoLuc tag as proxy for the PARP14 protein. […] Plasmid DNA was diluted in empty vector DNA then added to 1.163 mL of phenol red free OptiMEM (Thermo Fisher). Plasmid DNA concentrations used in each assay described in Table 1. The plasmid DNA was mixed with 78.5 μL of Fugene HD (Promega) and allowed to incubate 5 minutes.
The transfection was incubated for 24 hrs at 37 degrees in an incubator supplemented with 5% CO2. The cells were then trypsinized and brought up in phenol red free OptiMEM media. […] 40 nL of a dose response curve diluted in DMSO of each test compound was added to the cell plate using a Mosquito (TTP Labtech) and the plate was incubated at 37° C. for 2 hours. Assay plate was brought to room temperature then 20 μL per well of NanoGlo (Promega) was added to the plate. Luminescence was measured on an Envision (Perkin Elmer).
The average DMSO was calculated from 32 wells containing 0.1% DMSO only in columns 12 and 24 of the assay plate. The % of DMSO values were calculated as described below: […]
The % of DMSO values were plotted as a function of compound concentration and the following 4-parameter fit was applied to derive the DC50 values:
where top, bottom, and Hill Coefficient are allowed to float. Y is the % of DMSO and X is the compound concentration
DC50 data for the Example compounds is provided below in Table 2 (“+” is <0.1 μM; “++” is ≥0.1 μM and <1 μM; and “+++” is ≥1 μM).

Compound | DC50 (read-out: DC50) [nM] | DC50 [nM]
O=C1CCC(N2C(=O)c3cccc(N4CCC(CN5CCC(COc6cc(F)c7c(=O)[nH]c(CSC8CCOCC8)nc7c6)CC5)CC4)c3C2=O)C(=O)N1 (stereo not shown) [Example 35, 2-(2,6-dioxopiperidin-3-yl)-4-(4-((4-(((5-fluoro-4-oxo-2-(((tetrahydro-2H-pyran-4-yl)thio)methyl)-3,4-dihydroquinazolin-7-yl)oxy)methyl)piperidin-1-yl)methyl)piperidin-1-yl)isoindoline-1,3-dione] | < 100 | 
O=C1CCC(N2C(=O)c3cccc(N4CCC(CN5CCC(C(=O)N6CCC(COc7cc(F)c8c(=O)[nH]c(CSC9CCOCC9)nc8c7)CC6)CC5)CC4)c3C2=O)C(=O)N1 (stereo not shown) [Example 20, 2-(2,6-dioxopiperidin-3-yl)-4-(4-((4-(4-(((5-fluoro-4-oxo-2-(((tetrahydro-2H-pyran-4-yl)thio)methyl)-3,4-dihydroquinazolin-7-yl)oxy)methyl)piperidine-1-carbonyl)piperidin-1-yl)methyl)piperidin-1-yl)isoindoline-1,3-dione] | < 100 | 
O=C1CCN(c2ccc(C3CCN(CCN4CCC(COc5cc(F)c6c(=O)[nH]c(CSC7CCOCC7)nc6c5)CC4)CC3)cc2)C(=O)N1 [Example 77, 1-(4-(1-(2-(4-(((5-fluoro-4-oxo-2-(((tetrahydro-2H-pyran-4-yl)thio)methyl)-3,4-dihydroquinazolin-7-yl)oxy)methyl)piperidin-1-yl)ethyl)piperidin-4-yl)phenyl)dihydropyrimidine-2,4(1H,3H)-dione] | < 100 | 
CN1CCC(SCc2nc3cc(OCC4CCN(c5ccc6c(c5)C(=O)N(C5CCC(=O)NC5=O)C6=O)CC4)cc(F)c3c(=O)[nH]2)CC1 (stereo not shown) [Example 44, 2-(2,6-dioxopiperidin-3-yl)-5-(4-(((5-fluoro-2-(((1-methylpiperidin-4-yl)thio)methyl)-4-oxo-3,4-dihydroquinazolin-7-yl)oxy)methyl)piperidin-1-yl)isoindoline-1,3-dione] | < 100 | 
O=C1CCC(Nc2ccc(O[C@@H]3C[C@@H]4CN(CCN5CCC(COc6cc(F)c7c(=O)[nH]c(CSC8CCOCC8)nc7c6)CC5)C[C@@H]4C3)cc2)C(=O)N1 (stereo partly drawn) [Example 76, 3-((4-(((3aR,51,6aS)-2-(2-(4-(((5-fluoro-4-oxo-2-(((tetrahydro-2H-pyran-4-yl)thio)methyl)-3,4-dihydroquinazolin-7-yl)oxy)methyl)piperidin-1-yl)ethyl)octahydrocyclopenta[c]pyrrol-5-yl)oxy)phenyl)amino)piperidine-2,6-dione] | < 100 | 
O=C(CN1CCC(COc2cc(F)c3c(=O)[nH]c(CSC4CCOCC4)nc3c2)CC1)NCCCCNc1cccc2c1C(=O)N(C1CCC(=O)NC1=O)C2=O (stereo not shown) [Example 8, N-(4-((2-(2,6-dioxopiperidin-3-yl)-1,3-dioxoisoindolin-4-yl)amino)butyl)-2-(4-(((5-fluoro-4-oxo-2-(((tetrahydro-2H-pyran-4-yl)thio)methyl)-3,4-dihydroquinazolin-7-yl)oxy)methyl)piperidin-1-yl)acetamide] | < 100 | 
O=C1CCC(N2C(=O)c3cccc(N4CCN(CCN5CCC(COc6cc(F)c7c(=O)[nH]c(CSC8CCOCC8)nc7c6)CC5)CC4)c3C2=O)C(=O)N1 (stereo not shown) [Example 61, 2-(2,6-dioxopiperidin-3-yl)-4-(4-(2-(4-(((5-fluoro-4-oxo-2-(((tetrahydro-2H-pyran-4-yl)thio)methyl)-3,4-dihydroquinazolin-7-yl)oxy)methyl)piperidin-1-yl)ethyl)piperazin-1-yl)isoindoline-1,3-dione] | < 100 | 
O=C1CCC(Nc2ccc(OC3CC(CN4CCC(COc5cc(F)c6c(=O)[nH]c(CSC7CCN(CC(F)(F)F)CC7)nc6c5)CC4)C3)cc2)C(=O)N1 (stereo not shown) [Example 109] | < 100 | 
O=C1CCC(Nc2ccc(N3CCN(CCN4CCC(COc5cc(F)c6c(=O)[nH]c(CSC7CCOCC7)nc6c5)CC4)CC3C(F)(F)F)cc2)C(=O)N1 (stereo not shown) [Example 122] | < 100 | 
O=C1CCC(N2C(=O)c3cccc(C#CCN4CCC(COc5cc(F)c6c(=O)[nH]c(CSC7CCOCC7)nc6c5)CC4)c3C2=O)C(=O)N1 (stereo not shown) [Example 28, 2-(2,6-dioxopiperidin-3-yl)-4-(3-(4-(((5-fluoro-4-oxo-2-(((tetrahydro-2H-pyran-4-yl)thio)methyl)-3,4-dihydroquinazolin-7-yl)oxy)methyl)piperidin-1-yl)prop-1-yn-1-yl)isoindoline-1,3-dione] | < 100 | 
O=C1CCC(Nc2ccc(N3CCN(CCN4CCC(COc5cc(F)c6c(=O)[nH]c(CSC7CCOCC7)nc6c5)CC4)CC3)cc2)C(=O)N1 (stereo not shown) [Example 48, 3-((4-(4-(2-(4-(((5-fluoro-4-oxo-2-(((tetrahydro-2H-pyran-4-yl)thio)methyl)-3,4-dihydroquinazolin-7-yl)oxy)methyl)piperidin-1-yl)ethyl)piperazin-1-yl)phenyl)amino)piperidine-2,6-dione] |  | < 100
O=C1CCC(N2C(=O)c3ccc(C#CC4CCN(CCN5CCC(COc6cc(F)c7c(=O)[nH]c(CSC8CCOCC8)nc7c6)CC5)CC4)cc3C2=O)C(=O)N1 (stereo not shown) [Example 72, 2-(2,6-dioxopiperidin-3-yl)-5-((1-(2-(4-(((5-fluoro-4-oxo-2-(((tetrahydro-2H-pyran-4-yl)thio)methyl)-3,4-dihydroquinazolin-7-yl)oxy)methyl)piperidin-1-yl)ethyl)piperidin-4-yl)ethynyl)isoindoline-1,3-dione] | < 100 | 
O=C1CCC(Nc2ccc(N3C4CCC3CN(CCN3CCC(COc5cc(F)c6c(=O)[nH]c(CSC7CCOCC7)nc6c5)CC3)C4)cc2)C(=O)N1 (stereo not shown) [Example 121] | < 100 | 
O=C1CCN(c2cccc(N3CC(CN4CCC(COc5cc(F)c6c(=O)[nH]c(CSC7CCOCC7)nc6c5)CC4)C3)c2)C(=O)N1 [Example 54, 1-(3-(3-((4-(((5-fluoro-4-oxo-2-(((tetrahydro-2H-pyran-4-yl)thio)methyl)-3,4-dihydroquinazolin-7-yl)oxy)methyl)piperidin-1-yl)methyl)azetidin-1-yl)phenyl)dihydropyrimidine-2,4(1H,3H)-dione formate salt] | < 100 | 
O=C1CCC(N2C(=O)c3cccc(NCCCCCCC(=O)N4CCC(COc5cc(F)c6c(=O)[nH]c(CSC7CCOCC7)nc6c5)CC4)c3C2=O)C(=O)N1 (stereo not shown) [Example 11, 2-(2,6-dioxopiperidin-3-yl)-4-((7-(4-(((5-fluoro-4-oxo-2-(((tetrahydro-2H-pyran-4-yl)thio)methyl)-3,4-dihydroquinazolin-7-yl)oxy)methyl)piperidin-1-yl)-7-oxoheptyl)amino)isoindoline-1,3-dione] | < 100 | 
O=C1CCC(N2C(=O)c3ccc(/C=C/CN4CCC(COc5cc(F)c6c(=O)[nH]c(CSC7CCOCC7)nc6c5)CC4)cc3C2=O)C(=O)N1 (stereo not shown) [Example 43, (E)-2-(2,6-dioxopiperidin-3-yl)-5-(3-(4-(((5-fluoro-4-oxo-2-(((tetrahydro-2H-pyran-4-yl)thio)methyl)-3,4-dihydroquinazolin-7-yl)oxy)methyl)piperidin-1-yl)prop-1-en-1-yl)isoindoline-1,3-dione] | < 100 | 
O=C1CCC(N2Cc3c(cccc3N3CCN(CCN4CCC(COc5cc(F)c6c(=O)[nH]c(CSC7CCOCC7)nc6c5)CC4)CC3)C2=O)C(=O)N1 (stereo not shown) [Example 60, 3-(4-(4-(2-(4-(((5-fluoro-4-oxo-2-(((tetrahydro-2H-pyran-4-yl)thio)methyl)-3,4-dihydroquinazolin-7-yl)oxy)methyl)piperidin-1-yl)ethyl)piperazin-1-yl)-1-oxoisoindolin-2-yl)piperidine-2,6-dione] | < 100 | 
O=C1CCC(N2C(=O)c3cccc(NCC(=O)N4CCC(COc5cc(F)c6c(=O)[nH]c(CSC7CCOCC7)nc6c5)CC4)c3C2=O)C(=O)N1 (stereo not shown) [Example 6, 2-(2,6-dioxopiperidin-3-yl)-4-((2-(4-(((5-fluoro-4-oxo-2-(((tetrahydro-2H-pyran-4-yl)thio)methyl)-3,4-dihydroquinazolin-7-yl)oxy)methyl)piperidin-1-yl)-2-oxoethyl)amino)isoindoline-1,3-dione] | < 100 | 
O=C1CCC(N2Cc3c(cccc3N3CCN(CC4CCN(C(=O)CN5CCC(COc6cc(F)c7c(=O)[nH]c(CSC8CCOCC8)nc7c6)CC5)CC4)CC3)C2=O)C(=O)N1 (stereo not shown) [Example 17, 3-(4-(4-((1-(2-(4-(((5-fluoro-4-oxo-2-(((tetrahydro-2H-pyran-4-yl)thio)methyl)-3,4-dihydroquinazolin-7-yl)oxy)methyl)piperidin-1-yl)acetyl)piperidin-4-yl)methyl)piperazin-1-yl)-1-oxoisoindolin-2-yl)piperidine-2,6-dione] | < 100 | 
